Test results: patent publication US4550186A, “Binuclear copper (II) carboxylates formed from amine-carboxyboranes” (Duke University, priority 1983, dated 1985)

Assays:
HMG CoA Reductase = target: T1, HMG CoA Reductase (Mus musculus, UniProt Q01237); assay: In vivo liver enzyme study: HMG CoA reductase; settings: CF1 liver after 16 days i.p.
T1 construct: 10% homogenates of CF1 male mouse liver; from tissue; host or cells: CF1 male mouse liver, post-mitochondrial supernatant
T1 sequence (Q01237 1-887): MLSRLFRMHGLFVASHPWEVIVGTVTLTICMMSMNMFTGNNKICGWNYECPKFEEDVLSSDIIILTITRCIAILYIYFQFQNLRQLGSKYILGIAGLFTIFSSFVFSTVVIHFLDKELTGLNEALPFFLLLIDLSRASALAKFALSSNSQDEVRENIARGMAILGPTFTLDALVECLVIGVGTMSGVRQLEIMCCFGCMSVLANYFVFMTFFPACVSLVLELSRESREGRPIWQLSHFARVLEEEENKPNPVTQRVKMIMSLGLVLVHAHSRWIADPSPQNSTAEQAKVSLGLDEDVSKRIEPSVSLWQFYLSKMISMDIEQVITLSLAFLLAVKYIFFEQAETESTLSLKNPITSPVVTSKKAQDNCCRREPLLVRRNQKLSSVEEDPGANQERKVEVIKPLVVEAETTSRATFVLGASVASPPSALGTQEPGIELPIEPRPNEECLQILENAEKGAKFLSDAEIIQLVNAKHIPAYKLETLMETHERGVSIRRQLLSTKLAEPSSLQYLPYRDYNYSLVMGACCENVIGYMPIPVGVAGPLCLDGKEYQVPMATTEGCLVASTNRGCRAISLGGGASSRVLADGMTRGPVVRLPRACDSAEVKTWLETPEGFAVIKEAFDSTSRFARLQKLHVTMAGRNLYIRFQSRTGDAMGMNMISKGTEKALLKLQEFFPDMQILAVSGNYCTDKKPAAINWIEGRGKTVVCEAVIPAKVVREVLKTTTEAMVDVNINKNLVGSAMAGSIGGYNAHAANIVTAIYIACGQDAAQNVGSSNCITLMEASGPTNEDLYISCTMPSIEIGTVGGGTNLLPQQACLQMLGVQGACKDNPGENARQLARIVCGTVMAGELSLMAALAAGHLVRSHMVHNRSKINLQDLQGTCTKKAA
Method: In vitro enzymatic studies were determined using 10% homogenates of CF1 male mouse liver with 50-200 μM of test drugs. In vivo enzymatic studies were determined using 10% homogenates of liver from CF1 male mice obtained after administering the agents for 16 days at a dose ranging from 2.5-20 mg/kg/day intraperitoneally. The liver homogenates for both in vitro and in vivo studies were prepared in 0.25M sucrose and 0.001M (ethylenedinitrilo)tetraacetic acid. Acetyl coenzyme A synthetase and adenosine triphosphate dependent citrate lyase activities were determined spectrophotometrically at 540 nm as the hydroxylamate of acetyl coenzyme A formed after 30 min at 37° C. Mitochondrial citrate exchange was determined by the procedure of Robinson et al [Eur. J. Biochem., 216, 63 (1970)] using ^14 C-sodium bicarbonate (41 mCi/mmol) incorporated into mitochondrial ^14 C-citrate after isolating rat mitochondria (9000 g×10 min) from the homogenates. The exchanges of the ^14 C-citrate were determined after incubating the mitochondrial fraction which was loaded with labeled citrate and test drugs for 10 min. Then the radioactivity was measured in the mitochondrial and supernantant fractions in scintillation fluid and expressed as a percentage. Cholesterol side chain oxidation was determined by the method of Kritchevsky and Tepper [Artherosclerosis, 18, 93 (1973)] using (26-^14 C) cholesterol (50 mCi/mmol) and mitochondria isolated from rat liver homogenates. […] Fatty acid synthetase activity was determined by the method of Brady et al [J. Biol. Chem., 235, 3093 (1960)] using [2-^14 C] malonyl-coenzyme A (37.5 mCi/mmol) which was incorporated into newly synthesized fatty acids that were extracted with ether and counted. Acyl transferase activity was determined with glycerol-3phosphate [L-2-^3 H(N)] […] HCl and counted. Phosphatidate phosphohydrolase activity was measured as the inorganic phosphate released after 30 min from phosphatidic acid by the method of Mavis et al [J. Lipid Res., 19, 467 (1978)]. […]

[1] = target: T2, ribosomal ribonucleic acid polymerase (Mus musculus, UniProt O35134+P70700); assay: In vitro ribosomal ribonucleic acid polymerase activity; format: biochemical; settings: 0.25 to 1.0 mM
T2 construct: enzymes isolated from nuclei; endogenous in cells; host or cells: Ehrlich ascites tumor cell nuclei, ammonium sulfate fraction
Method: CF1 male mice (~30 g) were implanted with 2×10^6 Ehrlich ascites tumor cells, intraperitoneally on Day 0. Compound I was suspended by homogenation in 0.05% polysorbate.80-water and administered intraperitoneally at 10 and 20 mg/kg for 9 days to determine its effectiveness for inhibition of tumor growth. Mice were sacrificed on Day 10, and the ascites fluid was collected from the peritoneal cavity. The volume and ascrit (packed cell volume) were determined for each animal and the percent inhibition of tumor growth was calculated. For the metabolic studies, mice were treated on Days 8 and 9 with 10 mg/kg of Compound I, intraperitoneally. The animal was sacrificed on Day 10 and the ascites fluid harvested. The in vitro metabolic studies were performed at […] final concentration of Compound I.
In vitro and in vivo nuclear deoxyribonucleic acid polymerase activity was determined on isolated Ehrlich ascites cell nuclei. The incubation was that described by Sawada et al [Can. Res., 34, 3341 (1974)] except that [methyl-^3 H] deoxythymidine triphosphate (82.4 Ci/mmol) was used. The acid insoluble nucleic acid was collected on GF/F filters and counted. Nuclear ribonucleic acid polymerase activities were determined on enzymes isolated from nuclei. […] The acid insoluble ribonucleic acid was collected on nitrocellulose filters and counted.

T2 sequence (P52432 whole entry): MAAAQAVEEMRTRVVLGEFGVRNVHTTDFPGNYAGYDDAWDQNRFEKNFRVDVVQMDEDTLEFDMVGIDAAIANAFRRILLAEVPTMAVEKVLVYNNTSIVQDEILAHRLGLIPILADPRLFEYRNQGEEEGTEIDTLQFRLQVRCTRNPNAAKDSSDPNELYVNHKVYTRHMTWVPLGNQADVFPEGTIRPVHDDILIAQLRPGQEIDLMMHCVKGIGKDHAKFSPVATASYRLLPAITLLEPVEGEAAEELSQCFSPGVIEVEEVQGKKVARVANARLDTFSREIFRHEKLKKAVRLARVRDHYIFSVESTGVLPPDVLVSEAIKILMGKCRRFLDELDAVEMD
T2 sequence (Q791N7 whole entry, further chain): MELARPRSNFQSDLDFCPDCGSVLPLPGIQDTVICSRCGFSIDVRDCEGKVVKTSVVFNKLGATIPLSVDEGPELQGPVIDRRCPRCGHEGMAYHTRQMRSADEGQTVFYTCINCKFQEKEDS
T2 sequence (P97304 whole entry, further chain): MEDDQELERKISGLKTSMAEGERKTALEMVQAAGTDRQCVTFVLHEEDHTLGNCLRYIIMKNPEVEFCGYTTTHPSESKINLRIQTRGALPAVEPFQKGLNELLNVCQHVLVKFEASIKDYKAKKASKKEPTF
T2 sequence (Q78WZ7 whole entry, further chain): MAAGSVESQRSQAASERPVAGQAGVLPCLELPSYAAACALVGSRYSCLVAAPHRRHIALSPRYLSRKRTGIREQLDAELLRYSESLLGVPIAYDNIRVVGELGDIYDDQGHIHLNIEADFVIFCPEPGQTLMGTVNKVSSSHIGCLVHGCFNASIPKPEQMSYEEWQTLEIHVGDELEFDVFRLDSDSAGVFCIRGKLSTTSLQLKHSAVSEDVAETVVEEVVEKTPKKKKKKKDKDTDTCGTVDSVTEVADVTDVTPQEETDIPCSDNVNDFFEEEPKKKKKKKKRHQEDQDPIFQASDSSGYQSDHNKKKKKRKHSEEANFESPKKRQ
T2 sequence (P70700 whole entry): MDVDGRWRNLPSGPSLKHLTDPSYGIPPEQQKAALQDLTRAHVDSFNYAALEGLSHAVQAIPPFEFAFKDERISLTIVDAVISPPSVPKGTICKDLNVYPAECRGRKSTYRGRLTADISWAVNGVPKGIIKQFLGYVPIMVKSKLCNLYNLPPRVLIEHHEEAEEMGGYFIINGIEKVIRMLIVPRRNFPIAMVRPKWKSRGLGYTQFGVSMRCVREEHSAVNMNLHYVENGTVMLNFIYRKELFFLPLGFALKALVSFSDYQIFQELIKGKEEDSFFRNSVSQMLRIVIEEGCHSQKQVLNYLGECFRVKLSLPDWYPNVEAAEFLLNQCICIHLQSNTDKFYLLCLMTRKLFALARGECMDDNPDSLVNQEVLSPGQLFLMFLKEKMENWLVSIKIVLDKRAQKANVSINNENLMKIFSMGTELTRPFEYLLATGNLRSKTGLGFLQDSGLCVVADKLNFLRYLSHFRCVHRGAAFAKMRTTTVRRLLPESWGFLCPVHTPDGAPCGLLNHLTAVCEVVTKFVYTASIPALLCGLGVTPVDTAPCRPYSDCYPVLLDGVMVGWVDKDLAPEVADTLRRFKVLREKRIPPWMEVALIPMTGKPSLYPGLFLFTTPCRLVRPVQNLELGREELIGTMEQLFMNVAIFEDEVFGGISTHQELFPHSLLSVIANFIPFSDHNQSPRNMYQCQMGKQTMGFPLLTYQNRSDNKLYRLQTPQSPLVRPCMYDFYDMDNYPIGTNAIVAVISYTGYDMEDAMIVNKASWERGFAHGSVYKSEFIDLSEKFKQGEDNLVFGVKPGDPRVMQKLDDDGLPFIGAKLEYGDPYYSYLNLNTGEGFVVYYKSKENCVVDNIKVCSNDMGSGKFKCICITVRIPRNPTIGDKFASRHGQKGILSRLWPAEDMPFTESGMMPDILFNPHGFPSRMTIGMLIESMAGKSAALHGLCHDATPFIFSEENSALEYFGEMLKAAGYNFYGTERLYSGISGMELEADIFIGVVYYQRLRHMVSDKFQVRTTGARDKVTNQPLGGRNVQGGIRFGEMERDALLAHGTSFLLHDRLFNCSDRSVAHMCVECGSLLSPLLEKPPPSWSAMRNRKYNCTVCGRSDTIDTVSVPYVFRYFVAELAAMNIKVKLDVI
T2 sequence (O35134 whole entry): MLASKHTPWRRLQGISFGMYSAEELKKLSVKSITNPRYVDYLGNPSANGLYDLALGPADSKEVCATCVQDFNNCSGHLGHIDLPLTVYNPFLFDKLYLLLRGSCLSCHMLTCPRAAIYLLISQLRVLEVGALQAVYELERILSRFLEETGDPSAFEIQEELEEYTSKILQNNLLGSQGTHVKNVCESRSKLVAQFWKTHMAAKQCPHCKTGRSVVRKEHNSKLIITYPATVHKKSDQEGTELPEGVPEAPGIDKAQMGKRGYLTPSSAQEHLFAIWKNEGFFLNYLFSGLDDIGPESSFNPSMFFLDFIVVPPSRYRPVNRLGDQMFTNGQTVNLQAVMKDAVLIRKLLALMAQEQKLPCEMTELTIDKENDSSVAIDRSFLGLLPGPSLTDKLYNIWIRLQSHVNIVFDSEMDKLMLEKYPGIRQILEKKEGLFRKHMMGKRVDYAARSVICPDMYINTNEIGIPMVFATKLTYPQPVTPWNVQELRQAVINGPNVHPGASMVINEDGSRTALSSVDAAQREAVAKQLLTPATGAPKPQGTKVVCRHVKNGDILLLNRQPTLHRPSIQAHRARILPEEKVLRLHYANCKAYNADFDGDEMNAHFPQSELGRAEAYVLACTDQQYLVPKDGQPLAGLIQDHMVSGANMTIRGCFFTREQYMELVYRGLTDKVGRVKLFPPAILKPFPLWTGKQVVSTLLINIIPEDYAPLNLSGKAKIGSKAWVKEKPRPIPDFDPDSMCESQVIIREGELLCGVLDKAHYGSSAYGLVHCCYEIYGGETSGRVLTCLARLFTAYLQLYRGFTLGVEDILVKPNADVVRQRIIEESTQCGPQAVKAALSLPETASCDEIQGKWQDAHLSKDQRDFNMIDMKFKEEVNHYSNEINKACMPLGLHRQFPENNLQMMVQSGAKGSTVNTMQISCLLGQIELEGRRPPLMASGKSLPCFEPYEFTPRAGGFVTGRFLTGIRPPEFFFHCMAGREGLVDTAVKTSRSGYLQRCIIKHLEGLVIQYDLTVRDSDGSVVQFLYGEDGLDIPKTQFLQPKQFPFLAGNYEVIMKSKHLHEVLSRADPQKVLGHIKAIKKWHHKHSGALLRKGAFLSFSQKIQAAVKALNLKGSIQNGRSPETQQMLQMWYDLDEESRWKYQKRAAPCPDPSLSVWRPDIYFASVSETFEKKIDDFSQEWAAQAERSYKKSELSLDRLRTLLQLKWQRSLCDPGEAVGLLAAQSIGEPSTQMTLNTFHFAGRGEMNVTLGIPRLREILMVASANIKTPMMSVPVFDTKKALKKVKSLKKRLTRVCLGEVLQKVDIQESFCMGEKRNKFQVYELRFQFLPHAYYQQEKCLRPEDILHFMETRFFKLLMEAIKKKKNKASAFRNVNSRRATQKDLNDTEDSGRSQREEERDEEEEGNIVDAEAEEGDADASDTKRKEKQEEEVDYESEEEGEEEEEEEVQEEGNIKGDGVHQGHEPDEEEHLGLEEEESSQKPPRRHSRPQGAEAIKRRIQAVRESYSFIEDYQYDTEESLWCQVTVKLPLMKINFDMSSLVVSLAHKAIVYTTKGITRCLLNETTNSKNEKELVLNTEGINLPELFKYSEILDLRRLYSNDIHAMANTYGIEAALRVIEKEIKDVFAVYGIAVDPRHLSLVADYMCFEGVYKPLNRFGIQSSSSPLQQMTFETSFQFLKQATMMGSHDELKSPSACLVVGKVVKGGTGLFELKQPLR

Substance: {Cu[(CH3)3 N.BH2 CO2 ]2.(CH3)3 N.BH2 COOH} [Compound I]
- HMG CoA Reductase (HMG CoA Reductase; 2.5 mg/kg): 112 ± 8% of control
- HMG CoA Reductase (HMG CoA Reductase; 5.0 mg/kg): 108 ± 9% of control
- HMG CoA Reductase (HMG CoA Reductase; 10 mg/kg): 102 ± 8% of control
- ribosomal ribonucleic acid polymerase inhibition [1]: not inhibited
